Measured values reported in PMC9605737, “Identification of 6ω-cyclohexyl-2-(phenylamino carbonylmethylthio)pyrimidin-4(3H)-ones targeting the ZIKV NS5 RNA dependent RNA polymerase” (Frontiers in Chemistry, 2022).

Legend:
ZIKV NS5 protein = biological target: T1, ZIKV NS5 protein (Zika virus, UniProt A0A024B7W1); test: Cell thermal shift assay (CETSA) with WB detection; format: binding; settings: 50 μM, lysate of ZIKV-infected Vero cells, 60 min; DMSO control 42.3°C
T1 construct: endogenous in cells; host or cells: Vero cells infected with ZIKV
Experimental: Cell thermal shift assay (CETSA) experiments are often used to detect the binding of intracellular drugs to target proteins. The assay was based on the principle of ligand-induced changes in protein thermal stability. The stability of the protein is evaluated by comparing the melting curves between the control group and the experimental group, thus assessing the interaction of the compound with the target protein.
Therefore, in order to further verify the interaction between 4w and ZIKV NS5, ZIKV-infected cell were treated with 4w (at 50 μM concentration), then total protein was incubation for 60 min at room temperature, and it was divided into nine equal parts. The same volume of DMSO was added as a control, and the treated protein was heated in a temperature gradient and then detected ZIKV NS5 protein by WB assay (Figure 5A).
Vero cells were inoculated in a 10 cm cell culture dish and cultured overnight, and after infection with ZIKV (MOI ≈2), maintenance medium was added to continue culturing for 3 days. Detergent-free protein lysis buffer (25 mM HEPES, 20 mM MgCl2, 2 mM DTT) was added, and cells were lysed by sonication. […] The supernatants were collected to prepare the samples, and the binding of 4w and ZIKV NS5 protein was analyzed by Western blotting ([Chen et al., 2020]; [Chen et al., 2021]).

ZIKV RNA [1] = test: qRT-PCR viral load in supernatant of ZIKV-infected A549 cells; format: cell-based; settings: Zika virus, A549, read-out: EC50, inhibition of ZIKV RNA replication
Source text: (§1) In order to re-verify the inhibitory effect of 4w on ZIKV at the molecular level, we used ZIKV to infect cell lines of different origins (A549, Vero, Huh7 cells) and then treated with 4w in a concentration gradient. The change of viral load in the supernatant of cells after treatment was detected by qRT-PCR method.
(§2) Cells were infected with ZIKV SZ-WIV01 and then treated with 4w. The viral load in the supernatant was detected by Quantitative real-time polymerase chain reaction (qRT-PCR) at in different time periods after infection. Then the RNA from culture supernatant was extracted using the EasyPure ® Viral DNA/RNA Kit (TransGen Biotech, China) following the manufacturer’s instructions. Intracellular RNA extraction was according to trizol method. A one-step qRT-PCR kit RNA-direct™ Realtime PCR Master Mix (TOYOBO, Japan) and TaqMan probe were used to quantify the viral RNA produced. The primers (NS5 ZIKV 1086F: 5′-CCGCTGCCCAACACAAG-3′ and NS5 ZIKV 1086R: 3′-[…] C-5′) and probe (5′-FAM-[…]-TAMRA -3′) were used for amplification of the ZIKV NS5 region. A standard curve of the serial dilutions was used to quantify the viral RNA yield.
(§3) The 50% effective concentration (EC50) and 50% cytotoxic concentration (CC50) of the compound were calculated according to the Reed and Muench method, inhibition rate of ZIKV RNA yield- [(1-drug treatment/positive control) × 100]. […]

HCV NS5B RdRp = settings: ref Shen (2015); cited from earlier work
ZIKV [2] = test: Four different methods of drug treatment (virus, co-, pre-, post-treatment); format: cell-based, Zika virus; settings: viral load
Source text: (§4) ZIKV RdRp was a important domain in the C-terminal of ZIKV NS5, and plays a crucial role in the replication and synthesis of RNA in the life cycle of ZIKV. In order to further verify that 4w activity is related to RdRp domain inhibition, we examined the effect of 4w on the replication cycle of ZIKV using four different drug treatments and time-sharing withdrawal experiments (Figure 7A).
As mentioned above ([Duan et al., 2019]; [Zou et al., 2020]), according to the different life cycles of the ZIKV, four different drug treatment methods are set: virus treatment, co-treatment, pre-treatment, post-treatment. For virus treatment, the ZIKV and 4w were pre-treated in a 4°C refrigerator for 1 h, then the treated virus was added to the cells for 2 h of infection, and the virus was discarded, washed twice with PBS, and added to maintenance medium (containing 2% FBS DMEM high sugar medium), continue to culture at 37°C, 5% CO2 incubator for 3 days, collect the cell supernatant for RT-PCR and plaque experiments. For co-treatment: add 4w and ZIKV to the cells at the same time, incubate at 37°C, 5% CO2 for 2 h, then remove the virus and compounds, add maintenance medium for 3 days. Pre-treatment: Compound 4w and cells were treated at 4°C for 1 h, then 4w was removed, ZIKV was added for 2 h, remove virus and the maintenance medium was added to continue culturing for 3 days. […]

ZIKV RNA [3] = test: qRT-PCR viral load in supernatant of ZIKV-infected Vero cells; format: cell-based; settings: Zika virus, read-out: EC50, inhibition of ZIKV RNA replication
Source text: as §1, §2, §3

ZIKV [4] = test: Time of drug withdrawal experiment; format: cell-based, Zika virus; settings: 50 μM, drug withdrawal 4–6 h after dosing, viral load after 24 h
Experimental: as §4
The virus was added to the cells and adsorbed for 2 h at 4°C, then the unabsorbed virus was washed away with pre-cooled PBS, and 50 μM 4w was added at the same time. Withdraw the drug at 1, 2, 4, 6, 8, and 12 h after dosing. The cell supernatant was collected for viral load detection after the maintenance medium continued to culture for 24 h.

[5] = MTT cytotoxicity assay in Vero cells; format: cell-based, African green monkey; settings: African green monkey, triplicate, >200 = highest soluble concentration not reaching 50% cytotoxicity
Experimental: MTT assay was used to detect the toxicity of the compound. Cells were seeded in 96-well plates and cultured overnight. Compounds with different concentrations were added and incubated for 96 h. Then, 20 μl of 5 mg/ml MTT (Sigma-Aldrich, United States) solution was added to each well and kept at 37°C for 4 h. Subsequently, 100 μl of 12% SDS-50% DMF (Sigma-Aldrich, United States) solution was added and incubated overnight at 37°C. After the crystalline formamidine was completely dissolved, the optical density (OD) value was measured using a microplate reader (BioTek, United States) with a wavelength of 570 nm and a reference wavelength of 630 nm.
The 50% effective concentration (EC50) and 50% cytotoxic concentration (CC50) of the compound were calculated according to the Reed and Muench method, inhibition rate of ZIKV RNA yield- [(1-drug treatment/positive control) × 100]. The data and graphs were processed using GraphPad Prism8 software, expressed as mean ± standard deviation (Mean ± SD), comparison between groups using ANOVA, p < 0.05 was considered statistically significant.

T1 sequence (A0A024B7W1 2521-3423): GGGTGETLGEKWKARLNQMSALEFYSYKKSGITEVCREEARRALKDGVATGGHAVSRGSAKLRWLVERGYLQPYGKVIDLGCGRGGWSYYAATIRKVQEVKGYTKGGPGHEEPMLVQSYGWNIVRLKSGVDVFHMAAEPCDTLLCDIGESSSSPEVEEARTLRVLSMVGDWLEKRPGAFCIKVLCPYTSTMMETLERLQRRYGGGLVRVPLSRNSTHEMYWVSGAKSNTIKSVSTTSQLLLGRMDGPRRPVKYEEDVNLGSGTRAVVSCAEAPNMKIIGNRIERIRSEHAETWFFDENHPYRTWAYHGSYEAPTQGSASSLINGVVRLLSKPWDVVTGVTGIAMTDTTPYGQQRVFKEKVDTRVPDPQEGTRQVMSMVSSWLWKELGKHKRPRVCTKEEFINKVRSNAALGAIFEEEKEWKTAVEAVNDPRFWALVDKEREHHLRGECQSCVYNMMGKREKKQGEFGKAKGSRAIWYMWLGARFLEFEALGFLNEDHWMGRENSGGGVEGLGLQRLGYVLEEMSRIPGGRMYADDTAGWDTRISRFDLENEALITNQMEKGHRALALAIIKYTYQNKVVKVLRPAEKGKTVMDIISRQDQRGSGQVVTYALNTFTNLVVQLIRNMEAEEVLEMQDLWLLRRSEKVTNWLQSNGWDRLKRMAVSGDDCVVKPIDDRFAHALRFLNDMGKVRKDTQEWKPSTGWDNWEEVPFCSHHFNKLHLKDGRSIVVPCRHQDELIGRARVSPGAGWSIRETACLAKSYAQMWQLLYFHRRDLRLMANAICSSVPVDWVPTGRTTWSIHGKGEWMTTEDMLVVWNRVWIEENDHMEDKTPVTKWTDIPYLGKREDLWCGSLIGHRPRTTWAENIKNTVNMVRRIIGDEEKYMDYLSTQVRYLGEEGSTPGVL

For `CCc1c(C2CCCCC2)nc(SCC(=O)Nc2cc(F)cc(F)c2)[nH]c1=O` [Compound 4w, 2-{[4-cyclohexyl-5-ethyl-6-oxo-1,6-dihydropyrimidin-2-yl]thio}-N-(3,5-difluorophenyl)acetamide], the “apparent aggregation temperature (Tagg) of ZIKV NS5 protein” value (ZIKV NS5 protein) is given as 49.3 °C, the EC50 (ZIKV RNA [1]) is given as 5.18 ± 0.69 µM and the IC50 (HCV NS5B RdRp) is given as 0.102 µM. The “stage of the ZIKV replication cycle acted on” value (ZIKV [2]) was “mainly acts on the post-entry stage of the virus”, the EC50 (ZIKV RNA [3]) was 6.87 ± 1.21 µM and the “effect of drug withdrawal on release of progeny virus” value (ZIKV [4]) was “significantly inhibit the release of progeny virus”. The CC50 at 96 h [5] was greater than 200 µM.
